Results as given in patent EP4807001A1, “MODIFICATION TEMPLATE FOR IMPROVING INHIBITORY EFFECT OF DOUBLE-STRANDED OLIGONUCLEOTIDE ON TARGET GENE, COMBINATION THEREOF AND USE THEREOF” (Hangzhou Tianlong Pharmaceutical Co., Ltd., priority 2023, dated 2025).

Legend:
HBV = assay: AAV-HBV mouse model, low dose 0.5 mg/kg (Example 15); assay type: in vivo, AAV-HBV mice; conditions: for Log10 HBV DNA (IU/mL) / Log10 HBeAg (S/CO) / Log10 HBsAg (IU/mL) / HBsAb: plasma; for Log10 HBV DNA (IU/mL) / Log10 HBeAg (S/CO) / Log10 HBsAg (IU/mL): AAV-HBV mice, siRNA 0.5 mg/kg s.c. D0/7/14, ETV 0.1 mg/kg daily i.g.
Experimental: In this example, several sequences were exemplarily selected, such as the sequences C207S-DV32SPG5, C207S-DV29SPG5, C418S-DV34SPd7BG5, and C1575-DV27PG5 from Example 14, as shown in Table 49. The in vivo efficacy of these RNAi agents at a low dose (e.g., 0.5 mg/kg) was analyzed using an AAV-HBV mouse model.
Refer to Example 7. Table 51-10: Details of grouping and dosing

[1] = Plasma ALT levels in AAV-HBV mice (Examples 14-16); assay type: in vivo
Experimental: At week 4 (D-14) and week 5 (D-7) post-modeling, on the day prior to dosing (D0), and weekly post-dosing, 200 µL of blood was collected from the inner canthus and added to an EDTA-K2 tube, followed by centrifugation at 1000 g for 10 minutes to obtain plasma. The 12 mice in the two groups were subjected to challenge on D60. 200 µL of blood was collected from the inner canthus on D63, D67, D74, and D81, respectively, and added to an EDTA-K2 tube, followed by centrifugation at 1000 g for 10 minutes to obtain plasma. 20 µL of plasma was added to 980 µL of PBS, vortexed thoroughly, and analyzed for HBsAg, HBV DNA, HBeAg, and ALT levels. Separately, 15 µL of plasma was added to 210 µL of PBS, vortexed thoroughly, and analyzed for HBsAb levels. All processed samples to be tested were analyzed by Guangzhou Huayin Medical Research Institute. The remaining plasma was stored at - 80°C.
Blood was collected from all animals via submandibular venipuncture on Days -2, 6, 13, 20, 27, and 34. The collected blood samples were anticoagulated with EDTA and centrifuged at 5000 rpm for 10 minutes to obtain serum. After blood collection, the serum was separated, diluted with PBS, and sent for analysis. A 10 µL aliquot of serum was taken from each sample, diluted to 500 µL with PBS (50-fold dilution), and sent to Beijing DIAN Medical Laboratory Co., Ltd. for analysis of serum HBV DNA, HBeAg, and HBsAg. A 30 µL aliquot of serum was taken from each sample, diluted to 120 µL with PBS (4-fold dilution), and sent to Beijing DIAN Medical Laboratory Co., Ltd. for analysis of serum ALT. The remaining plasma was stored at -80°C.

AGT mRNA = assay: Inhibition of AGT mRNA expression in primary human hepatocytes via free uptake, qRT-PCR (Example 24); assay type: cell-based; conditions: 0.0064 nM to 100 nM, read-out: IC50 against AGT
Experimental: The inhibitory effects of the test samples on AGT mRNA expression in primary human hepatocytes were evaluated by qRT-PCR.
The culture medium was pre-warmed at a constant temperature of 37°C for at least 30 minutes. 300 µL of PBS was added to each well of a collagen-coated 24-well plate, which was shaken several times, and the PBS was aspirated. A cryovial containing hepatocytes was removed from liquid nitrogen, placed in a 37°C water bath, and gently shaken until only a small amount of ice crystals remained in the vial. The cell suspension was poured into thawing medium in one step. 1 mL of thawing medium was pipetted to rinse the inner wall of the cryovial 2 to 3 times. The cell suspension in thawing medium was mixed by inversion. The vial was centrifuged at 50 g for 5 minutes at room temperature, with acceleration set to 5 and deceleration set to 3. The cell suspension was diluted to 3 × 10^5 cells/mL in seeding medium, seeded into a 24-well plate at 0.5 mL per well, followed by incubation in an incubator for 24 hours.
The test samples were diluted to 100 to 0.0064 nM in primary human hepatocyte maintenance medium. […]
The RNA expression levels of the target gene in each sample were calculated based on Ct values using the ΔΔCt relative quantification method. Relative expression of the target gene was expressed as 2^-ΔΔCt. […]

In the case of `C=C1[C@H](CO)[C@@H](O)C[C@@H]1n1cnc2c(=O)[nH]c(N)nc21` [entecavir], the “Number of mice producing HBsAb” value (HBV; D7, low dose 0.5 mg/kg) is reported as 0, the “Number of mice producing HBsAb” value (HBV; D14, low dose 0.5 mg/kg) is reported as 0 and the “Number of mice producing HBsAb” value (HBV; D21, low dose 0.5 mg/kg) is reported as 0. The “Number of mice producing HBsAb” value (HBV; D28, low dose 0.5 mg/kg) was 0, the “Number of mice producing HBsAb” value (HBV; D35, low dose 0.5 mg/kg) was 0 and the “Number of mice producing HBsAb” value (HBV; D42, low dose 0.5 mg/kg) was 0. The “Number of mice producing HBsAb” value (HBV; D49, low dose 0.5 mg/kg) was 0, the “Number of mice producing HBsAb” value (HBV; D56, low dose 0.5 mg/kg) was 0 and the “Log10 HBV DNA (IU/mL)” value (HBV; D0) was 6.91 ± 0.58 IU/mL. For the same compound, the “Log10 HBeAg (S/CO)” value (HBV; D0) was 3.73 ± 0.06 S/CO, the “Log10 HBsAg (IU/mL)” value (HBV; D0) was 3.47 ± 0.34 IU/mL and the “Log10 HBV DNA (IU/mL)” value (HBV; D7) was 4.49 ± 0.54 IU/mL. The “Log10 HBeAg (S/CO)” value (HBV; D7) was 3.72 ± 0.05 S/CO, the “Log10 HBsAg (IU/mL)” value (HBV; D7) was 3.50 ± 0.33 IU/mL and the “Log10 HBV DNA (IU/mL)” value (HBV; D14) was 3.85 ± 0.24 IU/mL. For the same compound, the “Log10 HBeAg (S/CO)” value (HBV; D14) was 3.72 ± 0.03 S/CO, the “Log10 HBsAg (IU/mL)” value (HBV; D14) was 3.54 ± 0.25 IU/mL and the “Log10 HBV DNA (IU/mL)” value (HBV; D21) was 3.89 ± 0.31 IU/mL. The “Log10 HBeAg (S/CO)” value (HBV; D21) was 3.66 ± 0.05 S/CO, the “Log10 HBsAg (IU/mL)” value (HBV; D21) was 3.74 ± 0.14 IU/mL and the “Log10 HBV DNA (IU/mL)” value (HBV; D28) was 3.77 ± 0.37 IU/mL. The “Log10 HBeAg (S/CO)” value (HBV; D28) was 3.71 ± 0.06 S/CO, the “Log10 HBsAg (IU/mL)” value (HBV; D28) was 3.94 ± 0.27 IU/mL and the “Log10 HBV DNA (IU/mL)” value (HBV; D35) was 3.74 ± 0.25 IU/mL. For the same compound, the “Log10 HBeAg (S/CO)” value (HBV; D35) was 3.66 ± 0.05 S/CO, the “Log10 HBsAg (IU/mL)” value (HBV; D35) was 3.96 ± 0.39 IU/mL and the “Log10 HBV DNA (IU/mL)” value (HBV; D42) was 3.63 ± 0.08 IU/mL. The “Log10 HBeAg (S/CO)” value (HBV; D42) was 3.68 ± 0.05 S/CO, the “Log10 HBsAg (IU/mL)” value (HBV; D42) was 4.04 ± 0.40 IU/mL and the “Log10 HBV DNA (IU/mL)” value (HBV; D49) was 3.97 ± 0.13 IU/mL. For the same compound, the “Log10 HBeAg (S/CO)” value (HBV; D49) was 3.69 ± 0.08 S/CO, the “Log10 HBsAg (IU/mL)” value (HBV; D49) was 4.22 ± 0.33 IU/mL and the “Log10 HBV DNA (IU/mL)” value (HBV; D56) was 4.04 ± 0.32 IU/mL. The “Log10 HBeAg (S/CO)” value (HBV; D56) was 3.70 ± 0.04 S/CO, the “Log10 HBsAg (IU/mL)” value (HBV; D56) was 4.20 ± 0.30 IU/mL and the “Log10 HBV DNA (IU/mL)” value (HBV; D-7 (before dosing)) was 6.65 ± 0.58 IU/mL. For the same compound, the “Log10 HBeAg (S/CO)” value (HBV; D-7 (before dosing)) was 3.77 ± 0.06 S/CO, the “Log10 HBsAg (IU/mL)” value (HBV; D-7 (before dosing)) was 3.36 ± 0.26 IU/mL and the HBsAb (HBV; D7, low dose 0.5 mg/kg) was 30 mIU/mL. For the same compound, the HBsAb (HBV; D14, low dose 0.5 mg/kg) was 30 mIU/mL, the HBsAb (HBV; D21, low dose 0.5 mg/kg) was 30 mIU/mL and the HBsAb (HBV; D28, low dose 0.5 mg/kg) was 30 mIU/mL. For the same compound, the HBsAb (HBV; D35, low dose 0.5 mg/kg) was 30 mIU/mL, the HBsAb (HBV; D42, low dose 0.5 mg/kg) was 30 mIU/mL and the HBsAb (HBV; D49, low dose 0.5 mg/kg) was 30 mIU/mL. The HBsAb (HBV; D56, low dose 0.5 mg/kg) was 30 mIU/mL, the ALT ([1]; D7, Example 15 (low dose 0.5 mg/kg)) was 75 U/L and the ALT ([1]; D14, Example 15 (low dose 0.5 mg/kg)) was 75 U/L. It also gave an ALT ([1]; D21, Example 15 (low dose 0.5 mg/kg)) of 75 U/L, an ALT ([1]; D28, Example 15 (low dose 0.5 mg/kg)) of 75 U/L and an ALT ([1]; D35, Example 15 (low dose 0.5 mg/kg)) of 75 U/L. The ALT ([1]; D42, Example 15 (low dose 0.5 mg/kg)) was 75 U/L.

Zilebesiran showed an IC50 (AGT mRNA) of 7.07 nM.
